Laboratory results published in ChEMBL document CHEMBL1201862, “PubChem BioAssay data set” (2004).
Calls of active or inactive are those of the source. For most assays here, no stated cut-off is given here; in the data, actives have a measured EC50 and inactives only a lower limit.

Legend:
H4 = assay: Luminescence Cell-Based Dose Response HTS to Identify Activators of 5'UTR Stem-Loop Driven Prion Protein mRNA Translation in H4 Neuroglioblastoma Cells. [Related pubchem assays: 1829 (Project Summary), 1814 (Primary HTS)]; type: functional; details: Homo sapiens
[1] = Luminescence Cell-Based Dose Confirmation HTS to Identify Activators of 5'UTR Stem-Loop Driven Alpha-Synuclein mRNA Translation in H4 Neuroglioblastoma Cells. [Related pubchem assays: 1829 (Project Summary), 1814 (Primary HTS)]; type: functional
[2] = Luminescence Cell-Based Dose Response HTS to Identify Activators of Luciferase Translation or Activity in H4 […] Cells. [Related pubchem assays: 1829 (Project Summary), 1814 (Primary HTS)]; type: functional
Protein skinhead-1 = biological target: T1, Protein skinhead-1 (Caenorhabditis elegans, UniProt P34707); type: functional
T1 sequence (P34707 whole entry): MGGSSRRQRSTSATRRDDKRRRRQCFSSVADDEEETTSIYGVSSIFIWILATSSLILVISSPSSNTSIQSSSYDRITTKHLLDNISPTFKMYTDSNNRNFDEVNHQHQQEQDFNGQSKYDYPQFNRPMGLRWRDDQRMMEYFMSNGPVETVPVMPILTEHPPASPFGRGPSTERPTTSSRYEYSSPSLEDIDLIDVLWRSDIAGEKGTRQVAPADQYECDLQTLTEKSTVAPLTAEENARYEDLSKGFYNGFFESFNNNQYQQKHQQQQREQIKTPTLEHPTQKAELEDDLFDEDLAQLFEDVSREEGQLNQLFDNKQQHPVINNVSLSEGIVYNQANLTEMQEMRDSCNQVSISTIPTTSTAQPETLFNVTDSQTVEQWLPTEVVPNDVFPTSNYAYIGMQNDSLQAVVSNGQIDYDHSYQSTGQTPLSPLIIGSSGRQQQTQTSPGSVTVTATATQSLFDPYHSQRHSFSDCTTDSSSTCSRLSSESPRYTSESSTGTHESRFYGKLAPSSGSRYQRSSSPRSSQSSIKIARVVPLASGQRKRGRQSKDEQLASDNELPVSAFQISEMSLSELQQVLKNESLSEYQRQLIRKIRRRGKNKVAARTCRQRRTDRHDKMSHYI

[3] = microbe, parasite or virus in culture; type: functional; details: Mycobacterium tuberculosis
[4] = biological target: T2, Corticotropin-releasing factor receptor 2/Corticotropin-releasing factor-binding protein (Homo sapiens, UniProt P24387+Q13324); assay: activators of CRF receptor 2 with binding protein – uHTS hits, confirmation (AID 602473); type: functional; details: read-out: EC50_Mean
T2 sequence (Q13324 whole entry): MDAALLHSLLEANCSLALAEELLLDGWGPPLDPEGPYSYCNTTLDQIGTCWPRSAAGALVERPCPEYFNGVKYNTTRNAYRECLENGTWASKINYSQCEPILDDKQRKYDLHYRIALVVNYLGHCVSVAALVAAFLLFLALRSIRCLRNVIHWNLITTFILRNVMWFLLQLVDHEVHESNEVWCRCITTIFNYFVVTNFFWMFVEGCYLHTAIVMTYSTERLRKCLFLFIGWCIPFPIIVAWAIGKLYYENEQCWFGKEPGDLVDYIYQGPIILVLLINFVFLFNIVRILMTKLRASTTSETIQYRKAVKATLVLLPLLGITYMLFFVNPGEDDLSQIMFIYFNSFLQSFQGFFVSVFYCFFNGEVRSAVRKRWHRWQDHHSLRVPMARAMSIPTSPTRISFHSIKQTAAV
T2 sequence (P24387 whole entry): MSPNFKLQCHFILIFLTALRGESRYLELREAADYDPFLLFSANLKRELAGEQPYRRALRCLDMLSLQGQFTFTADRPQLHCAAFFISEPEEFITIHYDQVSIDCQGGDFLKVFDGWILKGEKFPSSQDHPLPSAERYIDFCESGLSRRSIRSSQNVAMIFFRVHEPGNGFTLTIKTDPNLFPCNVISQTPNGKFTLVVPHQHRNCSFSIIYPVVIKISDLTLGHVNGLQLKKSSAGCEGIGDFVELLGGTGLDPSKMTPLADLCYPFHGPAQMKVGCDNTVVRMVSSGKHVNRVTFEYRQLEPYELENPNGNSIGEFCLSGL

[5] = fluconazole-exposed Candida albicans growth modulators – fluorescence, retest, confirmation (AID 2467); type: functional, cell-based
[6] = NIH-3T3 fibroblast cytotoxicity, dose response, cytotoxicity control, cell-based, fluorescence, Alamar Blue, secondary assay (AID 2327); type: functional;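 further: NIH-3T3 mouse fibroblasts cultured with fluconazole at 8 µg/mL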
[7] = biological target: T3, Carboxy-terminal domain RNA polymerase II polypeptide A small phosphatase 1 (Homo sapiens, UniProt Q9GZU7); assay: CTDSP1 inhibitors, concentration-response, biochemical, absorbance readout, ultra-high-throughput screen actives (AID 540297); type: functional
T3 sequence (Q9GZU7 whole entry): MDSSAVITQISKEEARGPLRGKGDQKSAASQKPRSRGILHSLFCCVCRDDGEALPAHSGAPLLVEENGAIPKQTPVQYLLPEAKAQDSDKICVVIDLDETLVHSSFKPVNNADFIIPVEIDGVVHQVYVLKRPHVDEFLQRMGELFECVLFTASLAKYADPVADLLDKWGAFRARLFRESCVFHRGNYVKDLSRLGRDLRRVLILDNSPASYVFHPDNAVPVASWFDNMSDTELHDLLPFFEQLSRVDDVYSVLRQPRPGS

[8] = Trypanosoma cruzi growth suppression in host cells – NIH3T3 host cells, beta-gal luminescence, confirmation (AID 2044); type: functional, cell-based;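 further: intracellular parasites grown in NIH/3T3 mouse fibroblasts as host cells; luminescent beta-galactosidase reporter signal from transgenic T. cruzi replicating inside host cells; inhibitors lower the luminescence signal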
[9] = NIH3T3 cell viability loss – ATP luminescence, mouse fibroblasts, counter-screen, dose response (AID 2010); type: functional, cell-based;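 further: cells exposed to compound for about 90 hours before reading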
[10] = reduction of Shn3 3'UTR-driven luciferase in osteoblasts – cell-based, Clone20 osteoblasts, firefly luciferase, cherry-picked, dose response (AID 624132); type: functional;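 further: firefly luciferase luminescence from reporter carrying the Shn3 3'UTR in osteoblasts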
Streptokinase A = biological target: T4, Streptokinase A (Streptococcus pyogenes serotype M1, UniProt P10520); assay: viability-normalized secreted streptokinase activity reduction – plasminogen activation absorbance, OD405, dose response (AID 1914); type: functional, Streptococcus pyogenes M1 GAS;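 further: secreted streptokinase activity via plasminogen activation per viability signal from cell pellet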
T4 sequence (P10520 whole entry): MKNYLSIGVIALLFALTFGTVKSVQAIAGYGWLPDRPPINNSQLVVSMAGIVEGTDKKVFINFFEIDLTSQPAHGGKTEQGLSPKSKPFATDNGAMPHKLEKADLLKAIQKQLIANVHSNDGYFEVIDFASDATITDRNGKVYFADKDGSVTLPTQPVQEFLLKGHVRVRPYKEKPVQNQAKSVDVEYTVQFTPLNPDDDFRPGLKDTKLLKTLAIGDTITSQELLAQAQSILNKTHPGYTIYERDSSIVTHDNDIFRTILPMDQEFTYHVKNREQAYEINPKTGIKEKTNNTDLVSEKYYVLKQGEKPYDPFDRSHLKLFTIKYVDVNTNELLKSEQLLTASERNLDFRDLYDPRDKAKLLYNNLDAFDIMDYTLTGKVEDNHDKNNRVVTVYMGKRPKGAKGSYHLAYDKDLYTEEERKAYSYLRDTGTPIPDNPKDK

[11] = tested on: Streptococcus sp. 'group A'; assay: Streptococcus pyogenes SK(-)GAS viability under kanamycin – luminescence, BacTiterGlo, confirmation, counter-screen for streptokinase expression inhibitor project, dose response (AID 1900); type: functional, organism-based
Streptococcus = assay: GAS UMAA2166 growth inhibition – luminescence, BacTiterGlo, counter-screen for streptokinase expression inhibitor project, dose response (AID 1915); type: functional, organism-based;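 further: potency for reduction of bacterial viability or growth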

**Q.** For `C=CCN1C(=O)C(=O)N(Cc2nc3ccccc3s2)C1=O`, which EC50 (H4) is on record?
**A.** The EC50 was 0.283 µM (active).

**Q.** And the EC50 [1]?
**A.** The EC50 was 10.7 µM (active).

**Q.** And the EC50 [2]?
**A.** Its EC50 is 36.3 µM (active).

**Q.** What about the IC50 (Protein skinhead-1) of the same compound?
**A.** Its IC50 is > 100 µM (inactive).

**Q.** Which CC50 [3] does the source give for `COc1ccccc1Nc1nc(N)nc(CCl)n1` here?
**A.** The CC50 was 1.88 µM (active).

**Q.** With `N#C/C(=C/c1ccc(Sc2nc3ccccc3[nH]2)o1)c1cccc(Br)c1` as the compound, how does the CC50 [3] read?
**A.** Its CC50 is > 40 µM (active).

**Q.** For `O=C(NN=C(S)Nc1cccc(C(F)(F)F)c1)c1ccc(Cl)cc1Cl`, which EC50 [4] is on record?
**A.** The EC50 was > 53 µM (inactive).

**Q.** And the EC50 [5]?
**A.** The EC50 was 4.65 µM (active).

**Q.** And the EC50 [6]?
**A.** The EC50 was > 160 µM (inactive).

**Q.** Which EC50 (H4) does the source give for `COc1ccc(NN=Nc2ccc([N+](=O)[O-])cc2)cc1` here?
**A.** Its EC50 is 64.4 µM (active).

**Q.** What about the EC50 [1] of the same compound?
**A.** The EC50 was 1.01 µM (active).

**Q.** And the EC50 [2]?
**A.** The EC50 was 0.485 µM (active).

**Q.** Which IC50 (Protein skinhead-1) does the source give for `O=C(/C=C/c1cccs1)c1ccc(Br)cc1` here?
**A.** Its IC50 is 73.8 µM (inactive).

**Q.** For `C=CCNC(=O)c1cc2c(=O)n3ccccc3nc2s1`, which EC50 [1] is on record?
**A.** The EC50 was 1.08 µM (active).

**Q.** And the EC50 [2]?
**A.** The EC50 was 0.166 µM (active).

**Q.** What about the IC50 (Protein skinhead-1) of the same compound?
**A.** The IC50 was > 100 µM (inactive).

**Q.** Which IC50 (Protein skinhead-1) does the source give for `Cc1ccc(NC(=O)CNC(=O)c2cccs2)cc1S(=O)(=O)Nc1ccc(Cl)cc1` here?
**A.** Its IC50 is > 100 µM (inactive).

**Q.** What does the source list for `CCCc1ccc(OCC(=O)Nc2cc(S(=O)(=O)CC)ccc2O)cc1`?
**A.** EC50 [5]: 1.45 µM (active); EC50 [6]: > 160 µM (inactive)

**Q.** Which IC50 [7] does the source give for `COc1cc(Cl)c(C)cc1NC(=O)CSc1sc2c(O)cc(=O)[nH]c2c1C#N` here?
**A.** Its IC50 is 2.46 µM (active).

**Q.** Which IC50 (Protein skinhead-1) does the source give for `CC(=O)Nc1cc(C(F)(F)F)ccc1OCC1CCCO1` (stereo unspecified) here?
**A.** The IC50 was > 100 µM (inactive).

**Q.** For `CCSc1ccc2cc(OC)ccc2[n+]1CC`, which EC50 [5] is on record?
**A.** Its EC50 is > 38 µM (not active).

**Q.** What about the EC50 [8] of the same compound?
**A.** The EC50 was 6.53 µM (active).

**Q.** What about the EC50 [6] of the same compound?
**A.** The EC50 was > 160 µM (inactive).

**Q.** What about the EC50 [9] of the same compound?
**A.** Its EC50 is > 60 µM (not active).

**Q.** For `NC(=O)c1ccc(NC(=O)COC(=O)c2cc3c(s2)CCC3)cc1`, which IC50 [7] is on record?
**A.** The IC50 was 4.91 µM (active).

**Q.** With `Fc1ccccc1-c1nc(-c2ccc(Cl)cc2)no1` as the compound, how does the IC50 (Protein skinhead-1) read?
**A.** Its IC50 is > 100 µM (inactive).

**Q.** With `C[C@]12CC[C@H](O)CC1=CCC1C2CC[C@@]2(C)C1CCC21OCCO1` (stereo partly specified) as the compound, how does the AC50 [10] read?
**A.** Its AC50 is 27.3 µM (active).

**Q.** For `Oc1oc(-c2ccccc2Br)nc1/C=N/c1ccccn1`, which EC50 (H4) is on record?
**A.** Its EC50 is > 120 µM (not active).

**Q.** And the EC50 [1]?
**A.** Its EC50 is 59.1 µM (active).

**Q.** And the EC50 [2]?
**A.** The EC50 was 13 µM (active).

**Q.** For `CC1=C/C(=N\NC(=S)NCCc2ccccc2)CC(C)(C)C1`, which EC50 (H4) is on record?
**A.** The EC50 was > 120 µM (not active).

**Q.** What about the EC50 (Streptokinase A) of the same compound?
**A.** Its EC50 is 64 µM (active).

**Q.** What about the EC50 [11] of the same compound?
**A.** Its EC50 is 11.4 µM (active).

**Q.** What about the EC50 [1] of the same compound?
**A.** The EC50 was 12.1 µM (active).

**Q.** And the EC50 [5]?
**A.** Its EC50 is > 38 µM (not active).

**Q.** What about the EC50 [6] of the same compound?
**A.** The EC50 was > 150 µM (inactive).

**Q.** And the EC50 [2]?
**A.** Its EC50 is 14.2 µM (active).

**Q.** What about the EC50 (Streptococcus) of the same compound?
**A.** The EC50 was > 150 µM (not active).

**Q.** Which results are given for `Cc1nn(-c2ccccc2)c(Cl)c1/C=N/NC(=O)c1ccc(NS(=O)(=O)c2cccs2)cc1`?
**A.** EC50 (H4): 9.52 µM (active); EC50 [11]: 2.1 µM (active); EC50 [1]: 17.3 µM (active); EC50 [2]: 7.45 µM (active); EC50 (Streptococcus): 5.04 µM (active)

**Q.** With `O=c1cc(/C=C/c2ccccc2)oc2ccccc12` as the compound, how does the CC50 [3] read?
**A.** Its CC50 is > 40 µM (active).

**Q.** And the IC50 (Protein skinhead-1)?
**A.** The IC50 was 78.9 µM (inactive).
